One test has as its system bovine retinal pericytes. Nature of the test: HG-induced apoptosis (DNA fragmentation) in cultured retinal pericytes. It counts as cell-based. The note with it: for reversal of apoptosis / effects of HG once established: agent added during LG conditions after HG exposure; for effect on HG-induced apoptosis: pericytes in high glucose (20 mM), agent present with HG. The protocol:
Cell apoptosis will be evaluated by measurement of DNA fragmentation using cell death detection kit (ROCHE diagnostics). Approximately 15000 cells are seeded in 96-well plates in DMEM with 20% FBS for 18 hours. BRP are starved for 24 hours and then stimulated with either 5.5 or 20 mM of d-glucose for an addition 72 hours. DNA fragmentation is measured in accordance to manufacture's protocol. Increases in caspase 3+9 cleared will also be measured using immunoblot analysis. Measurement of NF-κB activity in cultured cells. Activity of NF-κB will be assessed by a microwell colorimetric assay using the TransAM NFκB transcription factor assay kit (Active Motif, Carlsbad, Calif.) following manufacturer's instruction (Renard et al., Nucleic Acids Res 29, E21 (2001)).
Various potential mechanisms for the metabolic memory process in retinal pericytes were explored in vitro. Cells were culture in high glucose (HG, 20 mM glucose) for about 72 hours, and then for another 24 hours in low glucose (LG, 5.6 mM glucose). This mimics a period of hyperglycemia followed by normoglycemia, a common pattern in diabetics, who often have a period of poorly controlled glycemia before finding a regime that provides better control, thus providing a cultured cell model of metabolic memory.
(§1) The role of p38 MAPK was studied further using SB203580, a specific inhibitor for p38 MAPK a and […] and adenoviral vector of dominant negative p38 MAPKα and β isoforms (Wang et al., J Biol Chem 273, 2161-8 (1998)), either at the same time as starting HG condition or after 3 days of HG when cells are returning to LG condition. In addition, the effects of the antioxidant N-acetylcysteine (NAC) were also evaluated. Activation of p38 MAPK β and δ was evaluated by immunoblotting with anti-phospho p38 MAPK α and δ antibodies.

The subject of another test is p38 MAPK. Briefly: HG-induced p38 MAPK activation in pericytes (immunoblot). It counts as cell-based, bovine. The note with it: high glucose.
Description: In addition to PKC activation, the effect of HG on p38 MAPK activation was also characterized, since PKC δ activation induced by HG can activate p38 MAPK in aortic smooth muscle and renal mesangial cells. […] HG was able to increase the phosphorylation of p38 MAPK by 2-fold in pericytes after three days of exposure (FIG. 4) in parallel with PKC δ activation and increases in apoptosis; no effects on JNK were observed.
as §1
On the technique in general: A western blot detects proteins with antibodies after separation by electrophoresis.

The subject of the next test is PDGF-Beta receptor. Briefly: PDGF-BB-induced tyrosine phosphorylation of PDGF-β receptor in HG-treated pericytes (Western blot). The note with it: high glucose. It counts as cell-based. The procedure: (§2) Protein tyrosine phosphatases (PTPs) play a key role in the regulation of receptor tyrosine kinases such as the PDGF-β receptor. Thus, experiments were performed to determine the pathway by which glycemic memory prevented tyrosine phosphorylation of the PDGF-Beta receptor. Cultured pericytes were exposed to either low glucose conditions (˜5.5 mM glucose, LG), high glucose conditions (˜20 mM glucose, HG), or high glucose followed by low glucose (˜20 mM, ±5.5 mM glucose, HG+LG) for 72 hours per exposure. Pericytes were lysed, and lysates were run on an SDS/PAGE gel, then transferred to nitrocellulose for immunoblotting, according to already published procedures. Commercially available antibodies for SHP-1 and another protein tyrosine phosphatase, PTP-1B were used to probe the blot, according to manufacturer's instructions.
Cultured pericytes were treated with high glucose (˜20 mM glucose) and subsequently prepared for Western blot analyses as described in Example 2. An antibody directed against phosphorylated PDGF-Beta receptor was used to assess the effects of the HG treatment on receptor phosphorylation levels.

A further test deals with SHP-1. Nature of the test: HG-induced SHP-1 expression in pericytes (Western blot). It counts as cell-based. Conditions: high glucose. The protocol:
as §2

The values below come from US8372582B2, “Methods of modulating metabolic memory” (Joslin Diabetes Center, Inc., priority 2006, dated 2013).

Entries after “also recorded” stand apart in the source; their conditions may differ.

On to `CC(=O)N[C@@H](CS)C(=O)O` [NAC, N-acetylcysteine], for which, in the test on bovine retinal pericytes, the “reversal of apoptosis / effects of HG once established” value is “not totally effective” and the “effect on HG-induced apoptosis” value was “partly able to prevent”.

As for `CN(C)C[C@@H]1CCn2cc(c3ccccc32)C2=C(C(=O)NC2=O)c2cn(c3ccccc23)CCO1` [RBX], in the test on p38 MAPK, the “prevention of HG induced p38 MAPK activation” value is listed as “ineffective”. For the same compound, the “effect on HG-induced apoptosis” value in the test on bovine retinal pericytes was “ineffective”.

For the compound `C[S+]([O-])c1ccc(-c2nc(-c3ccncc3)c(-c3ccc(F)cc3)[nH]2)cc1` (stereo not shown) [SB203580], the “effect on HG-induced abrogation of PDGF-BB actions” value with PDGF-Beta receptor is reported as “abrogated PDGF-BB actions; also recorded: prevented”. In addition, the “effect on HG-prevented tyrosine phosphorylation of PDGFR-β induced by PDGF” value in the test on PDGF-Beta receptor (FIG. 16) is reported as “reversed”. For the same compound, in the test on bovine retinal pericytes, the “reversal of apoptosis / effects of HG once established” value is reported as “not totally effective” and the “effect on HG-induced apoptosis” value is given as “partly able to prevent; also recorded: prevented apoptosis”. In addition, in the test with SHP-1, the “effect on HG-induced expression of SHP-1” value is “prevented”.

For the compound “dominant negative form of SHP-1: dominant negative form of SHP-1 (Dubois et al., Nat. Med. 2006); C453S ablates phosphatase activity”, the “effect on HG-induced apoptosis” value in the test with bovine retinal pericytes is “reduces HG-induced apoptosis, even in the presence of PDGF”.
